Measurements as given in patent US4166859A, “2-Bromo-6-fluoro-N-(2-imidazolidinylidene)-benzamine and salts thereof and the use to treat hypertension” (Boehringer Ingelheim GmbH, priority 1976, dated 1979).
Counter-ions that a name gives are not always drawn.

Columns and labels:
[1] = system: blood pressure; assay: Hypotensive activity (blood pressure reduction) in rabbits under urethane anesthesia, i.v.; type: in vivo; settings: for ED (20 mm Hg): Oryctolagus cuniculus, iv, urthane anesthesia, dose producing lasting reduction of 20 mm Hg of blood pressure, arteria carotis, read-out: Hypotensive ED20 in rabbits
Method: The hypotensive activity of the test compounds was determined on a statistically significant number of rabbits under urthane anesthesia. The blood pressure of the test animals was continuously measured in the arteria carotis by means of a mercury manometer before and after the i.v. administration of the test compound at varying dosage levels. The ED20 was determined, that is, the dose which produced a lasting reduction of 20 mm Hg of the blood pressure.

[2] = Stomach juice secretion inhibition, method of Shay et al; settings: rat, in vivo; dose reducing volume of stomach juice secreted by 50% and total acidity by 50%; measure of dryness of the mouth; read-out: Stomach juice secretion inhibiting ED50 in rats
Method: The effect on the stomach juice secretion was determined on rats by the standard test method of Shay et al, Gastroenterology 5, 43 (1943), and the ED50 was calculated for each test compound, that is, the dose which reduces the volume of stomach juice secreted over a given amount of time by 50%, and at the same time produces a 50% reduction in the total acidity of the secreted stomach juice volume.

[3] = pKa-value; type: physicochemical
[4] = Hygroscopicity of acid addition salts; type: physicochemical

Molecule `Fc1cccc(Br)c1NC1=NCCN1` [2-bromo-6-fluoro-N-(2-imidazolidinylidene)-benzamine monohydrochloride] has an ED (20 mm Hg) [1] of 0.01 mg/kg, an ED50 [2] of 0.1 mg/kg and a pKa [3] of 8.2.
With `Fc1cccc(Br)c1N=C1NCCN1` [Benzoate] the hygroscopicity [4] was “slightly hygroscopic”.
For `Fc1cccc(Br)c1N=C1NCCN1` [Citrate], the hygroscopicity [4] was “hygroscopic”.
`Clc1cccc(Cl)c1NC1=NCCN1` [Clonidine . HCl, 2-(2,6-dichloroanilino)-2-imidazoline, reference compound] gave an ED (20 mm Hg) [1] of 0.01 mg/kg and an ED50 [2] of 0.04 mg/kg.
With `Fc1cccc(Br)c1N=C1NCCN1` [Hydrobromide] the hygroscopicity [4] was “hygroscopic”.
With `Fc1cccc(Br)c1N=C1NCCN1` [Methanesulfonate] the hygroscopicity [4] was “hygroscopic”.
For `Fc1cccc(Br)c1N=C1NCCN1` [Nitrate], the hygroscopicity [4] was “slightly hygroscopic”.
With `Fc1cccc(Br)c1N=C1NCCN1` [Oxalate] the hygroscopicity [4] was “hygroscopic”.
In the case of `Fc1cccc(Br)c1N=C1NCCN1` [Tartrate], the hygroscopicity [4] is reported as “hygroscopic”.
With `Fc1cccc(Br)c1N=C1NCCN1` [Tosylate] the hygroscopicity [4] was “hygroscopic”.
In the case of `Clc1cccc(Cl)c1NC1=NCCN1` [clonidine, 2-(2,6-dichloroanilino)-2-imidazoline], the “antihypertensive efficacy relative to the invention compound” value ([1]; comparison with 2-bromo-6-fluoro-N-(2-imidazolidinylidene)-benzamine) is reported as “equal antihypertensive efficacy”.
